Assay results as given in patent publication US20170216234A1, “BENZOATES FOR USE IN TREATING DEMENTIA” (priority 2014, published 2017).

What was measured:
AD patients = conditions: some clinical studies; cited from earlier work
neuron death = conditions: cited from earlier work
healthy humans = conditions: cited from earlier work
[1] = both in vitro and in vivo studies; cited from earlier work
MCI and mild AD = conditions: cited from earlier work
MCI = conditions: treatment of MCI; cited from earlier work
[2] = Brain mass by magnetic resonance imaging study; assay type: in vivo
[3] = system: patients with aMCI or mild AD; experiment: Side effects, Udvalg for Kliniske Undersogelser Side-effects Rating Scale, in 24-week trial; assay type: in vivo, human
Experimental: Systemic side effects of treatments were evaluated by means of physical and neurological examinations and laboratory tests including CBC and biochemistry and reviewed by applying the Udvalg for Kliniske Undersogelser Side-effects Rating Scale at the baseline and weeks 8, 16, and 24.

NMDAR models = conditions: preclinical studies; cited from earlier work
glial cells = conditions: preclinical studies; cited from earlier work
[4] = system: patients with aMCI or mild AD; experiment: ADAS-cog in 24-week randomized double-blind placebo-controlled trial; conditions: for ADAS-cog score, mean difference from baseline: all subjects
[5] = system: patients with schizophrenia; conditions: 1000 mg/day, cited from earlier work
[6] = system: patients with aMCI or mild AD; experiment: CIBIC-plus in 24-week trial
[7] = system: patients with aMCI or mild AD; experiment: Additional cognition composite (speed of processing, working memory, verbal learning and memory) in 24-week trial

N[C@@H]1CONC1=O [D-cycloserine]
Score on the cognitive subscale of the Alzheimer's Disease Assessment Scale (ADAS-cog) (AD patients): improve their score

N[C@H](CO)C(=O)O [D-serine]
Extent of neuron death (neuron death): significantly decreases

CNC1(c2ccccc2Cl)CCCCC1=O (centres unmarked) [Ketamine]
Spatial learning and verbal information ability (healthy humans): impaired

C[C@]12N[C@H](Cc3ccccc31)c1ccccc12 [MK-801]
Apoptosis and neurodegeneration [1]: induce apoptosis and neurodegeneration

CC12CC3CC(C)(C1)CC(N)(C3)C2 [Memantine]
Efficacy in treating MCI (British Association for Psychopharmacology consensus statement) (MCI and mild AD; MCI): neither AChEIs nor memantine is effective | Efficacy at the early phase, including MCI and mild AD (MCI and mild AD; human, in vivo): limited efficacy

Nc1nc2ncc(CNc3ccc(C(=O)N[C@@H](CCC(=O)O)C(=O)O)cc3)nc2c(=O)[nH]1 [folic acid]
Cognitive enhancing effect (MCI): failed to show convincing evidence

NC(=O)CN1CCCC1=O [piracetam, reference compound]
Cognitive enhancing effect (MCI): failed to show convincing evidence

O=C([O-])c1ccccc1.[Na+] [sodium benzoate]
Brain mass [2]: can increase the brain mass | Tolerability ([3]; 24-week treatment): well-tolerated | Reported side effects on Udvalg for Kliniske Undersogelser Side-effects Rating Scale ([3]; all visits): no reported side effect | Effect in NMDAR models such as pain relief (NMDAR models): effective | Cell death in glial cells (glial cells): partially prevented cell death | ADAS-cog vs placebo, subgroup ([4]; CDR 1 subgroup, weeks 16 and 24 and endpoint (p=0151, p=.0387, p=.0092)): greater improvement than placebo therapy | ADAS-cog vs placebo, subgroup ([4]; CDR .5 subgroup, throughout the study (p>.05)): not superior to the placebo therapy | ADAS-cog effect size (Cohen's d) vs placebo ([4]; at the end of the study): .86 | ADAS-cog score, mean difference from baseline ([4]; endpoint, p=.0031 vs placebo): 5.9 | ADAS-cog score, mean difference from baseline ([4]; week 8, 250-750 mg/day, p=.3730 vs placebo): 3.8 | ADAS-cog score, mean difference from baseline ([4]; week 16, p=.0021 vs placebo): 5.4 | ADAS-cog score, mean difference from baseline ([4]; week 24, p=.0116 vs placebo): 5.9 | Side effects in earlier schizophrenia study ([5]; chronic schizophrenia): without obvious side effects | Neurocognitive function ([5]; patients with schizophrenia): beneficial | CIBIC-plus vs placebo, subgroup ([6]; CDR 1 subgroup, week 24 and endpoint (p=.040, p=.018)): greater improvement than placebo therapy | CIBIC-plus score, subgroup ([6]; aMCI (CDR .5) subgroup): did no improve | CIBIC-plus effect size vs placebo ([6]; at endpoint): .73 | CIBIC-plus score vs placebo ([6]; week 16 (p=.015), week 24 (p=.016), endpoint (p=.012), all subjects): greater improvement | Additional cognition composite vs placebo, subgroup ([7]; CDR 1 subgroup, p=.041): better efficacy | Additional cognition composite vs placebo, subgroup ([7]; CDR .5 subgroup, p=.063): borderline significance | Additional cognition composite effect size vs placebo ([7]; endpoint): .78 | Additional cognition composite vs placebo ([7]; endpoint, all subjects, p=.007): better than placebo

omega-3 fatty acid
Cognitive enhancing effect (MCI): failed to show convincing evidence

vitamin E
Cognitive enhancing effect (MCI): failed to show convincing evidence
